Test results as given in patent US9789096B2, “Methods and compositions for selective and targeted cancer therapy” (Board of Regents of the University of Texas System, priority 2013, dated 2017).
Like-named read-outs stand apart in the source and are kept apart here.

Experiments:
[1] = test system: HBEC30KT; assay: Cell viability (ATP, Cell Titer Glo, 4 days), HBEC30KT; format: cell-based, human; settings: Homo sapiens
[2] = test system: H1155; assay: Cell viability dose-response, H1155; format: cell-based; settings: Homo sapiens, NCI-H1155
How it was run: (§1)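 Read-out is total cellular ATP, measured with CellTiter-Glo after four days of compound treatment. Cells start at 15% confluence in RPMI-1640 containing 5% FBS and 2 mM L-glutamine. Each point averages two replicates (±SEM).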

[3] = test system: H1395; assay: Cell viability dose-response, H1395; format: cell-based; settings: Homo sapiens, NCI-H1395
Procedure: (§2) FIG. 6A. […] Cell viability is plotted vs. compound concentration. Compound was added to cells plated at 15% confluence in 96-well plates in RPMI-1640 media supplemented with 5% Fetal Bovine Serum and 2 mM L-Glutamine. After 4 days of incubation, ATP levels were measured using Cell Titer Glo (Promega). Data are presented as the average of 2 replicates ±SEM.
(§3) Selectivity may be measured by the half maximal inhibitory concentration (IC50), which, as used herein, is a measure of the effectiveness of a compound in killing cells. This quantitative measure indicates how much of a particular compound is needed to kill a particular cell population by half (e.g., as indicated by the amount of ATP). […] The IC50 can be determined by constructing a dose-response curve. The lower the IC50, the higher the potency, and the greater the difference between IC50 values for different cell lines (e.g., sensitive lines vs. insensitive lines, and sensitive lines vs. normal lines) the greater the selectivity. […]
(§4) With this information, we synthesized and tested a series of small molecules derived in conception from the oxalamide and chromone scaffold including N-acyl ureas, as shown in Tables 6-8. Each compound was tested in a 12-point dose-response study starting at 50 micromolar and decreasing in 3-fold increments to sub-nanomolar concentrations, in duplicate. Additionally, one or more additional cell line was tested in the same way.

[4] = test system: H1819; assay: Cell viability dose-response, H1819; format: cell-based, human; settings: Homo sapiens
How it was run: (§5)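 Cells plated at 15% confluence in RPMI-1640 with 5% FBS and 2 mM L-glutamine, treated with compound in a 12-point, 3-fold dilution series from 50 micromolar, in duplicate. ATP measured by Cell Titer Glo after 4 days; IC50 taken from the dose-response curve.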

[5] = test system: H1993; assay: Cell viability dose-response, H1993; format: cell-based; settings: Homo sapiens, NCI-H1993
How it was run: as §1

[6] = test system: H2009; assay: Cell viability dose-response, H2009; format: cell-based, human; settings: Homo sapiens, NCI-H2009
How it was run: as §1

[7] = test system: H2073; assay: Cell viability dose-response, H2073; format: cell-based, human; settings: Homo sapiens
How it was run: as §1

[8] = test system: H2122; assay: Cell viability dose-response, H2122; format: cell-based, human; settings: Homo sapiens
How it was run: as §5

[9] = test system: H460; assay: Cell viability dose-response, H460; format: cell-based; settings: Homo sapiens, NCI-H460
How it was run: as §1

[10] = test system: HCC366; assay: Cell viability dose-response, HCC366; format: cell-based; settings: Homo sapiens, 12-point dose-response starting at 50 micromolar, 3-fold increments, in duplicate, read-out: toxicity data, HCC366
Procedure: as §2, §3, §4

[11] = test system: HCC4017; assay: Cell viability dose-response, HCC4017; format: cell-based, human; settings: Homo sapiens
How it was run: as §1

[12] = test system: HCC44; assay: Cell viability dose-response, HCC44; format: cell-based, human; settings: Homo sapiens
How it was run: as §1

[13] = test system: HCC95; assay: Cell viability dose-response, HCC95; format: cell-based; settings: Homo sapiens
How it was run: as §1

[14] = test system: H2122 cells; assay: Metabolism by sensitive cells (HPLC/MS/MS); format: in vitro ADME, human
Procedure: (§6) FIGS. 9A-9D. Selective toxins selectively cross-link to SCD1 in sensitive cells and are selectively metabolized in sensitive cells. FIG. 9A. 12 NSCLC cell lines were incubated with SW208108 and processed as described in FIG. 7. […] FIG. 9B. […] FIG. 9C. […] Demethylation is the anticipated mode of metabolism. FIG. 9D. A representative benzothiazole is demethylated by sensitive cell lines. […] Values in FIGS. 9C and 9D were obtained by tandem HPLC/MS/MS.
(§7) In this context, 12 different NSCLC cell lines were treated with SW208108, lysed and clicked to a dye as previously described. […] To understand how SW208108 could selectively cross-link to SCD1 within some cell lines that expressed the enzyme but not other cell lines that expressed the same enzyme, we investigated the stability of a representative oxalamide in the presence of a sensitive and insensitive cell line. […] Similarly, a representative benzothiazole was metabolized by H2122 cells through, at least in part, the loss of the O-methyl group (FIG. 9D).

[15] = test system: HCC4017; assay: Metabolism by insensitive cells (HPLC/MS/MS); format: in vitro ADME, human
Procedure: as §6, §7

[16] = test system: 12 lung adenocarcinoma cell lines; assay: Proliferation of the panel of 12 lung adenocarcinoma cell lines; format: cell-based, human
Procedure: as §2
To discover selective agents, twelve cell lines of diverse genotype were selected for analysis. 108 lung cancer cell lines were initially clustered into six groups based on mRNA expression of genes that underwent frequent copy number variation. Two cell lines were chosen from each group for high throughput chemical screening. All 12 of the chosen cell lines were derived from lung adenocarcinomas, eliminating both lineage and histology as confounders. None of the cell lines chosen for screening harbored EGFR mutations or ALK rearrangements, so that the final set represented a collection of diverse lung adenocarcinoma genotypes for which there are no targeted therapy.
The proliferative impact of each compound in the library was assayed by analyzing total ATP four days after administration of 2.5 μM in a single well. This first pass yielded 15,843 toxins defined as a compound where ATP levels were […] three standard deviations below the mean for at least one cell line. For each of these putative toxins, the average effect on proliferation was retested on each cancer cell line and a non-cancerous immortalized HBEC line (control), yielding a confirmation dataset.
(§8) In addition, N-acyl benzothiazoles was also discovered, such as 4-amino-N-(6-methoxybenzo[d]thiazol-2-yl)benzamide (ATB). We compared the proliferation of 12 lung adenocarcinoma cell lines and three HBEC lines after the addition of ATB.
(§9) We subsequently synthesized various derivatives that are both selective and potent (Tables 1 and 2). One leading candidate is a benzothiazole, SW202857, that inhibits proliferation in three of 12 adenocarcinoma cell lines at concentrations less than 10 nM.

[17] = test system: 3 human bronchial epithelial (HBEC) cell lines; assay: Vitality of human bronchial epithelial (HBEC) cell lines; format: cell-based; settings: at 10 μM
Procedure: as §8, §9

[18] = test system: about 300 protein kinase enzymes; assay: Kinase inhibition assays (EMD Millipore); format: biochemical, human
Procedure: (§10) Specifically, kinase inhibition assays were performed at EMD Millipore at 1, 10 and 100 nM SW202857 and individually optimized concentrations of ATP. […] Listed kinases are the human enzyme unless indicated: mouse (m), rat (r), yeast (y).

[19] = target: T1, GSK3beta (Homo sapiens, UniProt P49841); assay: Kinase inhibition assay (EMD Millipore), GSK3beta; format: biochemical; settings: 100 nM
T1 construct: purchased EMD Millipore
Procedure: as §10

[20] = Stability in mouse liver S9 fractions; format: in vitro ADME
[21] = ADME for xenograft studies; format: in vivo
[22] = test system: H2122 xenografts; assay: In vivo efficacy, H2122 xenografts in NOD/SCID mice; parameters: species or system mouse; settings: 25 mg/kg IP twice daily
Procedure: (§11) FIG. 6C. […] NOD/SCID mice were injected with either H2122 (sensitive) or H1155 (insensitive) cells subcutaneously on day 0. When tumors reached 200 cubic mm, treatment with SW203668 (listed as A2) or vehicle was initiated (as indicated by the arrow) with twice daily doses of 25 mg/kg, IP. Tumor size was measured every 3 days for the duration of the study. Data are plotted as mean±SEM; n=12 for each group.

[23] = test system: H1155 xenografts; assay: In vivo efficacy, H1155 xenografts in NOD/SCID mice; parameters: species or system mouse; settings: 25 mg/kg IP twice daily
Procedure: as §11

[24] = NCI-H2122, Tables 3 and 4, read-out: IC50 (uM) vs indicated non-small cell lung cancer cell line H2122

T1 sequence (P49841 whole entry): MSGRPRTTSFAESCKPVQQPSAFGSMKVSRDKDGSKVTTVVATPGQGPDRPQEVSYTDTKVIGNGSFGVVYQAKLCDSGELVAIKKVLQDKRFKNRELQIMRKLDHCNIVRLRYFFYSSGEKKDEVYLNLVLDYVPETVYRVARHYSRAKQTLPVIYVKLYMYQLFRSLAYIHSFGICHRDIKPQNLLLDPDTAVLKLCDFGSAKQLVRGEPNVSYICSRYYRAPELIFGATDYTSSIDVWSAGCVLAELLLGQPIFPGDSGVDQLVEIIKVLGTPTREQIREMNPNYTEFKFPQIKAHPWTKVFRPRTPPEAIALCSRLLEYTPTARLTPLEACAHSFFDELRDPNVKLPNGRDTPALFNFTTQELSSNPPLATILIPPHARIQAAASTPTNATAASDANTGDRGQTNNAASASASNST

COc1ccc(CCNC(=O)C(=O)Nc2cccc(Cl)c2)cc1 [SW027950]
IC50 ([1]; 12-point dose-response starting at 50 micromolar, 3-fold increments, in duplicate, read-out: toxicity data, HBEC30KT): 34 µM
IC50 ([2]; 12-point dose-response starting at 50 micromolar, 3-fold increments, in duplicate, read-out: toxicity data, H1155): 50 µM
IC50 ([3]; 12-point dose-response starting at 50 micromolar, 3-fold increments, in duplicate, read-out: toxicity data, H1395): 50 µM
IC50 ([4]; NCI-H1819, 12-point dose-response starting at 50 micromolar, 3-fold increments, in duplicate, read-out: toxicity data, H1819): ≥ 50 µM
IC50 ([5]; 12-point dose-response starting at 50 micromolar, 3-fold increments, in duplicate, read-out: toxicity data, H1993): 50 µM
IC50 ([6]; 12-point dose-response starting at 50 micromolar, 3-fold increments, in duplicate, read-out: toxicity data, H2009): 20.3 µM
IC50 ([7]; NCI-H2073, 12-point dose-response starting at 50 micromolar, 3-fold increments, in duplicate, read-out: toxicity data, H2073): 1.4 µM
IC50 ([8]; NCI-H2122, 12-point dose-response starting at 50 micromolar, 3-fold increments, in duplicate, read-out: toxicity data, H2122): 0.35 µM
IC50 ([9]; 12-point dose-response starting at 50 micromolar, 3-fold increments, in duplicate, read-out: toxicity data, H460): 3.9 µM
IC50 [10]: 50 µM
IC50 ([11]; HCC4017, 12-point dose-response starting at 50 micromolar, 3-fold increments, in duplicate, read-out: toxicity data, HCC4017): ≥ 50 µM
IC50 ([12]; HCC44, 12-point dose-response starting at 50 micromolar, 3-fold increments, in duplicate, read-out: toxicity data, HCC44): 34 µM
IC50 ([13]; 12-point dose-response starting at 50 micromolar, 3-fold increments, in duplicate, read-out: toxicity data, HCC95): 0.35 µM
metabolism by sensitive H2122 cells [14]: metabolized
stability in the presence of an insensitive cell line [15]: completely stable

COc1ccc2nc(NC(=O)c3ccc(C(=O)c4ccccc4)cc3)sc2c1 [SW202857-1, 4-benzoyl-N-(6-methoxybenzo[d]thiazol-2-yl)benzamide]
IC50 ([1]; Tables 3 and 4, read-out: HBEC30KT IC50): 22.8 µM
IC50 ([2]; Tables 3 and 4, read-out: IC50 (uM) vs indicated non-small cell lung cancer cell line H1155): 22.3 µM
IC50 ([3]; Tables 3 and 4, read-out: IC50 (uM) vs indicated non-small cell lung cancer cell line H1395): 31.8 µM
IC50 ([4]; NCI-H1819, Tables 3 and 4, read-out: IC50 (uM) vs indicated non-small cell lung cancer cell line H1819): 42.7 µM
IC50 ([5]; Tables 3 and 4, read-out: IC50 (uM) vs indicated non-small cell lung cancer cell line H1993): 21.3 µM
IC50 ([6]; Tables 3 and 4, read-out: IC50 (uM) vs indicated non-small cell lung cancer cell line H2009): 3.16 µM
IC50 ([7]; NCI-H2073, Tables 3 and 4, read-out: IC50 (uM) vs indicated non-small cell lung cancer cell line H2073): 0.0185 µM
IC50 ([8]; NCI-H2122, Table 9, competitor, read-out: IC50 to H2122 cells): 0.00923 µM
IC50 [8, 24]: 0.00839 µM
IC50 ([9]; Tables 3 and 4, read-out: IC50 (uM) vs indicated non-small cell lung cancer cell line H460): 0.046 µM
IC50 ([11]; HCC4017, Tables 3 and 4, read-out: IC50 (uM) vs indicated non-small cell lung cancer cell line HCC4017): 32.6 µM
IC50 ([12]; HCC44, Tables 3 and 4, read-out: IC50 (uM) vs indicated non-small cell lung cancer cell line HCC44): 0.0236 µM
IC50 ([13]; Tables 3 and 4, read-out: IC50 (uM) vs indicated non-small cell lung cancer cell line HCC95): 10.8 µM
toxic concentration against four sensitive cell lines ([16]; four sensitive cell lines): less than 50 nM
concentration that inhibits proliferation in three of 12 adenocarcinoma cell lines ([16]; three sensitive lines): less than 10 nM
toxic effect on the other 9 adenocarcinoma cell lines ([16]; up to 10 μM): no toxic effect
vitality of 3 human bronchial epithelial (HBEC) cell lines [17]: nor does it affect the vitality
inhibition of about 300 protein kinase enzymes in vitro ([18]; 0.10 μM): failed to inhibit
inhibition, all other kinases ([18]; highest concentration (100 nM)): ≤ 15%
inhibition at 0.1 µM [19]: 21%
stability in the presence of mouse liver S9 fractions [20]: chemically stable
metabolism by sensitive H2122 cells [14]: demethylated

COc1ccc2nc(NC(=O)c3ccc(C(N)c4ccccc4)cc3)sc2c1 (centres unmarked) [SW203668]
IC50 [8, 24]: 0.035 µM
absorption, distribution, metabolism, and excretion (ADME) [21]: appropriate absorption, distribution, metabolism, and excretion
tumor growth inhibition in H2122 xenografts [22]: selective toxicity
tumor growth inhibition in H1155 xenografts [23]: but not H1155 xenografts
